Data taken from patent publication US11517581B2, “Zika virus protease inhibitors and methods of use thereof” (priority 2017, dated 2022).
In brackets after ≈: the same amount, converted by molar mass.

Columns and labels:
ZIKV [1] = conditions: recently reported; cited from earlier work
ZIKV NS2B-NS3 protease = ZIKV NS2B-NS3 protease (Zika virus, UniProt A0A024B7W1, DEL1468-1502); type: biochemical; conditions: 10 μM substrate; for Effect of increasing drug concentrations on protease activity: 5 nM protease
[2] = Cell viability (MTT) assay in Huh-7 cells; type: cell-based; conditions: human
Method: (§1) Briefly, Vero or Huh-7 cells (4×10^4 cells/well) were incubated with different concentrations of individual drug for 24 h, followed by the addition of 10 μl/well of 5 mg/ml MTT substrate. The monolayers were incubated as above for 4 h (away from light). Finally, 100 μl of 10% sodium dodecyl sulfate (SDS) with 0.01M HCl was added and further incubated at 37° C. with 5% CO2 overnight. […] Briefly, the drug compounds were diluted with serum-free MEM and added to confluent Vero cells in 96-well culture plates (4×10^4 cells/well) in triplicate for 2 h at 37° C. After incubation, the drug-containing media were removed, and ZIKV (multiplicity of infection, MOI=0.0002) was added together with fresh drug-compound media to each well. Following 1 h of adsorption at 37° C., the virus-compound mixture was removed and the cells were washed twice with MEM to remove unbound virus. Subsequently, media with antiviral compounds were added to the cells for further incubation for 6 days at 37° C. in a 5% CO2 humidified environment. CPE was examined by inverted light microscopy (Chan et al., 2016b). Thereafter, MTT substrate and SDS-HCl were added sequentially as mentioned above. The half maximal inhibitory concentration (IC50) and CC50 were calculated using Sigma plot (SPSS) in an Excel add-in ED50V10.

[3] = system: ZIKV (Puerto Rico strain PRVABC59); test: Viral load reduction assay (qRT-PCR) in Vero cells; type: cell-based, Zika virus; conditions: culture supernatants, Vero and Huh-7; data not shown
[4] = Cell viability (MTT) assay in Vero cells; type: cell-based; conditions: African green monkey
Method: as §1

ZIKV [5] = conditions: literature; cited from earlier work
[6] = oral and parenteral; cited from earlier work
[7] = system: ZIKV NS2B-NS3 protease (recombinant fusion, ZIKV-NS2B residues 49-95 and ZIKV-NS3 residues 1-170); test: Fluorescence-based protease inhibition assay; type: biochemical, Zika virus; conditions: 10 μM substrate, 5 nM protease
Description: The recombinant ZIKV NS2B-NS3 protease was produced as previously described with some modifications (Lei et al., 2016). Briefly, coding regions of the ZIKV-NS2B (residues 49-95) and ZIKV-NS3 (residues 1-170) genes were fused and cloned into the pET-28b(+) expression vector (Novagen, Merck & Co., New Jersey, USA). The plasmid was transformed into Escherichia coli strain BL21 (DE3) and overexpressed in 2×YT medium. When the OD600 of the culture reached 0.8, overexpression of the ZIKV NS2B-NS3 protease gene was induced for overnight by addition of 0.5 mM IPTG at 20° C. […] The purified protein was detected by Western blot using anti-His-tag antibodies. Concentration of protein was determined by Bradford protein assay kit (Bio-Rad Laboratories, California, USA) using bovine serum albumin as standard.
The recombinant ZIKV NS2B-NS3 protease was produced as previously described with some modifications (Lei et al., 2016). To detect ZIKV NS2B-NS3 protease activity, a fluorescence-based enzymatic assay was conducted in 96-well black micro-plates (Greiner Bio-One, Kremsmünster, Germany). […] The fluorescence signal from the released AMC was measured at 460 nm with excitation at 360 nm, using a VICTOR™ X3 multilabel plate reader (Perkin Elmer, Massachusetts, USA). […] After 10 min, the fluorescence intensity was measured. […]

ZIKV NS2B-NS3 protease, sequence (A0A024B7W1 1502-1672, added parts left off, stated change not applied): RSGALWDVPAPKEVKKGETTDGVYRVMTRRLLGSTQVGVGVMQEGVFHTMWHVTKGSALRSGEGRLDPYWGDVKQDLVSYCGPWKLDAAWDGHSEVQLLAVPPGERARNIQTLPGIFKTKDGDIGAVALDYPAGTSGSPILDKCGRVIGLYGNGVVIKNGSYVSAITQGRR

Compound: CC[C@H]1OC(=O)[C@H](C)[C@@H](O[C@H]2C[C@@](C)(OC)[C@@H](O)[C@H](C)O2)[C@H](C)[C@@H](O[C@@H]2O[C@H](C)C[C@H](N(C)C)[C@H]2O)[C@](C)(O)C[C@@H](C)CN(C)[C@H](C)[C@@H](O)[C@]1(C)O [Azithromycin]
- In vitro anti-ZIKV effects (ZIKV [1]): in vitro anti-ZIKV effects

Compound: CCN(CC)CCCC(C)Nc1ccnc2cc(Cl)ccc12 (centres unmarked) [Chloroquine]
- In vitro anti-ZIKV effects (ZIKV [1]): in vitro anti-ZIKV effects

Compound: CCCCCCCCCC(=O)N[C@@H](Cc1c[nH]c2ccccc12)C(=O)N[C@H](CC(N)=O)C(=O)N[C@@H](CC(=O)O)C(=O)N[C@@H]1C(=O)NCC(=O)N[C@@H](CCCN)C(=O)N[C@@H](CC(=O)O)C(=O)N[C@H](C)C(=O)N[C@@H](CC(=O)O)C(=O)NCC(=O)N[C@H](CO)C(=O)N[C@@H]([C@H](C)CC(=O)O)C(=O)N[C@@H](CC(=O)c2ccccc2N)C(=O)O[C@@H]1C [Daptomycin]
- In vitro anti-ZIKV effects (ZIKV [1]): in vitro anti-ZIKV effects

Compound: N=C(N)NCCC[C@H](NC(=O)[C@@H]1CCCN1C(=O)[C@@H]1CSSCCC(=O)N[C@@H](Cc2ccc(O)cc2)C(=O)N[C@@H](Cc2ccccc2)C(=O)N[C@@H](CCC(N)=O)C(=O)N[C@@H](CC(N)=O)C(=O)N1)C(=O)NCC(N)=O [Desmopressin acetate]
- Effect of increasing drug concentrations on protease activity (ZIKV NS2B-NS3 protease): dose-dependent reduction in protease activity

Compound: CC[C@H](C)[C@H]1O[C@]2(CC[C@@H]1C)C[C@@H]1C[C@@H](C/C=C(\C)[C@@H](O[C@H]3C[C@H](OC)[C@@H](O[C@H]4C[C@H](OC)[C@@H](O)[C@H](C)O4)[C@H](C)O3)[C@@H](C)/C=C/C=C3\CO[C@@H]4[C@H](O)C(C)=C[C@@H](C(=O)O1)[C@]34O)O2 [Ivermectin]
- In vitro anti-ZIKV effects (ZIKV [1]): in vitro anti-ZIKV effects

Compound: OC(c1cc(C(F)(F)F)nc2c(C(F)(F)F)cccc12)C1CCCCN1 (centres unmarked) [Mefloquine]
- In vitro anti-ZIKV effects (ZIKV [1]): in vitro anti-ZIKV effects

Compound: O=C(Nc1ccc([N+](=O)[O-])cc1Cl)c1cc(Cl)ccc1O [Niclosamide]
- In vitro anti-ZIKV effects (ZIKV [1]): in vitro anti-ZIKV effects

Compound: CO[C@H]1/C=C/O[C@@]2(C)Oc3c(C)c(O)c4c(O)c(c(/C=N/N5CCN(C)CC5)c(O)c4c3C2=O)NC(=O)/C(C)=C\C=C\[C@H](C)[C@H](O)[C@@H](C)[C@@H](O)[C@@H](C)[C@H](OC(C)=O)[C@@H]1C [Rifampicin]
- CC50 at 24 h [2]: 400 µg/mL (≈ 486 µM)
- Dose-dependent reduction in virus titer observed [3]: not
- Effect of increasing drug concentrations on protease activity (ZIKV NS2B-NS3 protease): dose-dependent reduction in protease activity
- CC50 at 24 h [4]: 400 µg/mL (≈ 486 µM)

Compound: CC(C)OC(=O)[C@H](C)N[P@](=O)(OC[C@H]1O[C@@H](n2ccc(=O)[nH]c2=O)[C@](C)(F)[C@@H]1O)Oc1ccccc1 [Sofosbuvir]
- Efficacy in animal models (ZIKV [5]): effective in animal models
- In vitro anti-ZIKV effects (ZIKV [1]): in vitro anti-ZIKV effects

Compound: O=C(Nc1ccc([N+](=O)[O-])cc1Cl)c1cc(Cl)ccc1O [niclosamide]
- Solubility [6]: insoluble

Compound: Aprotinin [listing 1 of 2 here]
- IC50 (vs protease activity) (ZIKV NS2B-NS3 protease; 5 nM ZIKV NS2B-NS3 protease, positive control): 13.6 ± 1.1 KIU/ml

Compound: Aprotinin [listing 2 of 2 here]
- Reduction in protease activity with increasing concentrations [7]: blocked the protease cleavage activity

Compound: Octreotide acetate
- Effect of increasing drug concentrations on protease activity (ZIKV NS2B-NS3 protease): dose-dependent reduction in protease activity
